According to the kinase profiling compilation of Christmann-Franck et al. (2016):

Legend:
Test in all cases: Caliper, Mobility shift assay off-chip
NTRK1 (human) = NTRK1 (human) (UniProt P04629)
FGFR1 (human) = FGFR1 (human) (UniProt P11362)
FGFR4 (human) = FGFR4 (human) (UniProt P22455)
FLT4 (human) = FLT4 (human) (UniProt P35916)
PTK6 (human) = PTK6 (human) (UniProt Q13882)
MERTK (human) = MERTK (human) (UniProt Q12866)
CSNK2A1 (human) = CSNK2A1 (human) (UniProt P68400)
CSNK1G1 (human) = CSNK1G1 (human) (UniProt Q9HCP0)
PLK1 (human) = PLK1 (human) (UniProt P53350)
SRPK3 (human) = SRPK3 (human) (UniProt Q9UPE1)
SGK1 (human) = SGK1 (human) (UniProt O00141)
TYK2 JH1 JH2 (human) = TYK2 JH1 JH2 (human) (UniProt P29597)
PRKACA (human) = PRKACA (human) (UniProt P17612)
EPHA4 (human) = EPHA4 (human) (UniProt P54764)
MAPKAPK2 (human) = MAPKAPK2 (human) (UniProt P49137)
STK38 (human) = STK38 (human) (UniProt Q15208)
PAK2 (human) = PAK2 (human) (UniProt Q13177)
CDK3 (human) = CDK3 (human) (UniProt Q00526)
NEK9 (human) = NEK9 (human) (UniProt Q8TD19)
NEK1 (human) = NEK1 (human) (UniProt Q96PY6)
SRPK2 (human) = SRPK2 (human) (UniProt P78362)
TYRO3 (human) = TYRO3 (human) (UniProt Q06418)
RPS6KB2 (human) = RPS6KB2 (human) (UniProt Q9UBS0)
FES (human) = FES (human) (UniProt P07332)
FGFR3 (human) = FGFR3 (human) (UniProt P22607)
TSSK1B (human) = TSSK1B (human) (UniProt Q9BXA7)
SLK (human) = SLK (human) (UniProt Q9H2G2)
PRKCA (human) = PRKCA (human) (UniProt P17252)
ROCK2 (human) = ROCK2 (human) (UniProt O75116)
RPS6KA6 KD1 KD2 (human) = RPS6KA6 KD1 KD2 (human) (UniProt Q9UK32)
WNK1 (human) = WNK1 (human) (UniProt Q9H4A3)
CDK1 (human) = CDK1 (human) (UniProt P06493)

Chain of NEK9 (human) (Q8TD19 whole entry, looked up): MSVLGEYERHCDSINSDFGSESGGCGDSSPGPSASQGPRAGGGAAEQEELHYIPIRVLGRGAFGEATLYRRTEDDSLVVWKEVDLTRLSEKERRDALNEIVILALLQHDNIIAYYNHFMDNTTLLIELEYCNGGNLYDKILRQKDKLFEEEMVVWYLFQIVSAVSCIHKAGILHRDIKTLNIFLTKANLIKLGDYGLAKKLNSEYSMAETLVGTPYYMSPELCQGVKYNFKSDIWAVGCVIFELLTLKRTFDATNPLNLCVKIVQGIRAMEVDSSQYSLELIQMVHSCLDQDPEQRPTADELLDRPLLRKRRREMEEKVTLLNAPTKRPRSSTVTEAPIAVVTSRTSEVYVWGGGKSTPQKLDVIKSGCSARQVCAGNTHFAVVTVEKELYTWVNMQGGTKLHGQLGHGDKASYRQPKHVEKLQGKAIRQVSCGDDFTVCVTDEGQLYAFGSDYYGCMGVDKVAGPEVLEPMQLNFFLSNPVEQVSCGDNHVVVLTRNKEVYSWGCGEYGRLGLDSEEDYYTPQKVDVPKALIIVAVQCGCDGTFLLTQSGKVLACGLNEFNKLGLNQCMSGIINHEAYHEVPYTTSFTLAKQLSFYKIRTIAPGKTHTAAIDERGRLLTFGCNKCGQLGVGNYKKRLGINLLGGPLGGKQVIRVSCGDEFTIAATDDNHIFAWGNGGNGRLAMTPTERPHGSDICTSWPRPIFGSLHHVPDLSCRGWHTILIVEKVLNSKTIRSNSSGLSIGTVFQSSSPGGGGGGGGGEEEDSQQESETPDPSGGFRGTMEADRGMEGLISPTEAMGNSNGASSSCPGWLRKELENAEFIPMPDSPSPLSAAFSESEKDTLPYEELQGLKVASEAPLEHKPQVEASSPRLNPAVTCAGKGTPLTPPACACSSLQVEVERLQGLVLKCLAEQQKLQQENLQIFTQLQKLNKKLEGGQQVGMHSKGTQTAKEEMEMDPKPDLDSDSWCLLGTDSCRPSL
Chain of PTK6 (human) (Q13882 whole entry, looked up): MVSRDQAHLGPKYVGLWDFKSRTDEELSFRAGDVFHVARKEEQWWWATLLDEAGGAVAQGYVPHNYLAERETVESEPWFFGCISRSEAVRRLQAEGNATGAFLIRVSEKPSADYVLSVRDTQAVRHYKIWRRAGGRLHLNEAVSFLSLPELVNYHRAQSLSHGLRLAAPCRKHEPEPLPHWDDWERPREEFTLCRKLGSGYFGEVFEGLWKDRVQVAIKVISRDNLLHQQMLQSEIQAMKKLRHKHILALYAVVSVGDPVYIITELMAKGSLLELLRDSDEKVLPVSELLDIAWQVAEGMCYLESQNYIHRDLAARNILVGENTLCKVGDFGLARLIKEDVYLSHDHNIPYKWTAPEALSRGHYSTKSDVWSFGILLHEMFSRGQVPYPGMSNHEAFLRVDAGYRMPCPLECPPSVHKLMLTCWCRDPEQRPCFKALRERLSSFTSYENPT
Chain of NEK1 (human) (Q96PY6 whole entry, looked up): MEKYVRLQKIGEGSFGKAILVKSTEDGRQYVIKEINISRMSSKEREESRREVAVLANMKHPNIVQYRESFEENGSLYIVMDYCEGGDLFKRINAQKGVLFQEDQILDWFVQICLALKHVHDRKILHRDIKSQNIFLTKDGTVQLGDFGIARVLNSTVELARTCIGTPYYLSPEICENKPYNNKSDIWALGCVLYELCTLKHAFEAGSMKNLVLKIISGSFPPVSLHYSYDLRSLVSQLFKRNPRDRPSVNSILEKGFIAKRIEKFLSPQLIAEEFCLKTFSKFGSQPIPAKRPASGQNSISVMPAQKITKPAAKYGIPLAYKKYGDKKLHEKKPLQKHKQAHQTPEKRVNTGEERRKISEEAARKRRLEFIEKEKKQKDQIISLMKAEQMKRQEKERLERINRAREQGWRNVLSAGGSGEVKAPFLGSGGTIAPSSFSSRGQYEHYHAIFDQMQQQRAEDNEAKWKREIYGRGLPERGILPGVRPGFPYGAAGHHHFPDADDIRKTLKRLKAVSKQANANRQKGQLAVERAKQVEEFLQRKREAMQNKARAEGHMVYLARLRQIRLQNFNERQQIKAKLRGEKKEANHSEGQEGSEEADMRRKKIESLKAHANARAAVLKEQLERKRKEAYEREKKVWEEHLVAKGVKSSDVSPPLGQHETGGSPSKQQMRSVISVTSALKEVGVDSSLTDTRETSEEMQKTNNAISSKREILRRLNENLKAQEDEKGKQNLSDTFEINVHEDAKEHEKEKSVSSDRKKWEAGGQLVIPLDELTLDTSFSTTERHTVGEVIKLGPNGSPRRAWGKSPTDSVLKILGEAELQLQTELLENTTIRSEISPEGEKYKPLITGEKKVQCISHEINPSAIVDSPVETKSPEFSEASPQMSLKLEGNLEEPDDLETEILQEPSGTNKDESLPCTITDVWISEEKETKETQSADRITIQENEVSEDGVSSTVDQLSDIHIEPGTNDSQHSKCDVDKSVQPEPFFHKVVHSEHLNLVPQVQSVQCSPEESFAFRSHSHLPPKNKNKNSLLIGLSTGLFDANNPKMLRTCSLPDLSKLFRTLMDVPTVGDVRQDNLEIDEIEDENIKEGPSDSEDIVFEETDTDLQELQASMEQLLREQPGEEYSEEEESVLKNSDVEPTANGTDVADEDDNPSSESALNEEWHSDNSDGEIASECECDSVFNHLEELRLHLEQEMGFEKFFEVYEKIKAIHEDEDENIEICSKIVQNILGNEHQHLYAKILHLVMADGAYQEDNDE
Chain of EPHA4 (human) (P54764 whole entry, looked up): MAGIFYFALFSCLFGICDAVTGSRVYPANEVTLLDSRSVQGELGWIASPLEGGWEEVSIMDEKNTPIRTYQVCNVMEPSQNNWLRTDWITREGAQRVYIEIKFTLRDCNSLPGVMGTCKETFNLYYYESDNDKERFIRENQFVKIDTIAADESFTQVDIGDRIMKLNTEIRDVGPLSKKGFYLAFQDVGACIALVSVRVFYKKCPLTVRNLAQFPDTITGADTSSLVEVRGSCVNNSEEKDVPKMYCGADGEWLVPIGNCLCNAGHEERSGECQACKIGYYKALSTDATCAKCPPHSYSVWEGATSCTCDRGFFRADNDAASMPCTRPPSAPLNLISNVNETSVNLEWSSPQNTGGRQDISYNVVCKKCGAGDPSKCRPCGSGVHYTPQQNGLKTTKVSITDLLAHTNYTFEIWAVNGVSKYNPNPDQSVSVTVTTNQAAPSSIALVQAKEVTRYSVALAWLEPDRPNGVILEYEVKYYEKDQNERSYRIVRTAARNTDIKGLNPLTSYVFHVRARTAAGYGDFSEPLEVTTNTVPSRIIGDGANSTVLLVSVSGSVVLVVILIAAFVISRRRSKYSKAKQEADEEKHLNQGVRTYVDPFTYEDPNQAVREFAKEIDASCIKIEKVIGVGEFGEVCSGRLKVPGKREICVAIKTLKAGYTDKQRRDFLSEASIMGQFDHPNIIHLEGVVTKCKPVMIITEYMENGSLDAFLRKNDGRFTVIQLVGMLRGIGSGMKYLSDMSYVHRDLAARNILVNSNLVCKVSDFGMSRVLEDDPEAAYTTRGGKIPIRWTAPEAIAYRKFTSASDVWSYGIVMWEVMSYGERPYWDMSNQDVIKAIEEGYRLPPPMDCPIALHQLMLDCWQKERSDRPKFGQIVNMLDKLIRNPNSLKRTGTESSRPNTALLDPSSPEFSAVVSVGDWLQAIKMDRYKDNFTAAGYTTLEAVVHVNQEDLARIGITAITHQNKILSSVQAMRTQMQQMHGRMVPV
Chain of FGFR4 (human) (P22455 whole entry, looked up): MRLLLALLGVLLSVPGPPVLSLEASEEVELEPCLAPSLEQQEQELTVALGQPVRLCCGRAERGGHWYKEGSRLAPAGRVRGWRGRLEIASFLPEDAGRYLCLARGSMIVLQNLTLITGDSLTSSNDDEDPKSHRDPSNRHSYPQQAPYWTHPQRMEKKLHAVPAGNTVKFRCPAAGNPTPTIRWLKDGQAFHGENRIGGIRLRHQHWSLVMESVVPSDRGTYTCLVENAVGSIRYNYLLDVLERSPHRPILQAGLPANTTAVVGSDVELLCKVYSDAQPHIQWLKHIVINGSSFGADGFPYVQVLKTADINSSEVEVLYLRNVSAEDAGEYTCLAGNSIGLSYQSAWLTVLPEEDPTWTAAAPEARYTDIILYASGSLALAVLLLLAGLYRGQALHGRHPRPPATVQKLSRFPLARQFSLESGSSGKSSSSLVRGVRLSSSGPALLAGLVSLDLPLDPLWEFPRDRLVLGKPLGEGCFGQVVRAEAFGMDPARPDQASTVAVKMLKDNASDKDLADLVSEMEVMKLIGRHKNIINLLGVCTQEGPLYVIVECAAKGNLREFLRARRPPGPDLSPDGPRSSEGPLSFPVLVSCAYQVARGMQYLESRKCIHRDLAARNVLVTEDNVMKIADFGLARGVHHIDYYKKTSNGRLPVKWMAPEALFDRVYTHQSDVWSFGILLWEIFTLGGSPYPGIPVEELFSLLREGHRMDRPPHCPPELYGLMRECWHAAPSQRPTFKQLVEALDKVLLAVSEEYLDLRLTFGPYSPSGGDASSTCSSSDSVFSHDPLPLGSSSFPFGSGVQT
Chain of CSNK2A1 (human) (P68400 whole entry, looked up): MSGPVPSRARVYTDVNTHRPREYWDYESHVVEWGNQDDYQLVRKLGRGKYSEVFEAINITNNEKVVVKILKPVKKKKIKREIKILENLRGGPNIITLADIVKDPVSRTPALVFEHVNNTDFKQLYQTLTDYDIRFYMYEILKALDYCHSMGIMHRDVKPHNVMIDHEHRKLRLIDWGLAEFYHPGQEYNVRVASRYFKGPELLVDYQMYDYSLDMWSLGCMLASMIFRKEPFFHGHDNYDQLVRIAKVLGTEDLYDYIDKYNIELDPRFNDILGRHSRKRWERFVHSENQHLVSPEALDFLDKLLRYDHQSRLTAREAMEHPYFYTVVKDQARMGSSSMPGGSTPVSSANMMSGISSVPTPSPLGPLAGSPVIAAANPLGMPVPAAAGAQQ

## CNC(=O)c1cc(Oc2ccc(NC(=O)Nc3ccc(Cl)c(C(F)(F)F)c3)cc2)ccn1
NTRK1 (human); compound 0.02 µM
  inhibition: 7.9%
NTRK1 (human); compound 0.2 µM
  inhibition: 37.2%
FGFR1 (human); compound 0.02 µM
  inhibition: 5.3%
FGFR1 (human); compound 0.2 µM
  inhibition: 49.9%
FGFR4 (human); compound 0.02 µM
  inhibition: -7.4%
FGFR4 (human); compound 0.2 µM
  inhibition: 8.8%
FLT4 (human); compound 0.02 µM
  inhibition: 61.6%
FLT4 (human); compound 0.2 µM
  inhibition: 98.5%
PTK6 (human); compound 0.02 µM
  inhibition: -0.9%
PTK6 (human); compound 0.2 µM
  inhibition: -0.8%
MERTK (human); compound 0.02 µM
  inhibition: -3.5%
MERTK (human); compound 0.2 µM
  inhibition: 10.2%
CSNK2A1 (human); compound 0.02 µM
  inhibition: -2%
CSNK2A1 (human); compound 0.2 µM
  inhibition: 0.3%
CSNK1G1 (human); compound 0.02 µM
  inhibition: -3.7%
CSNK1G1 (human); compound 0.2 µM
  inhibition: -3%
PLK1 (human); compound 0.02 µM
  inhibition: -3.1%
PLK1 (human); compound 0.2 µM
  inhibition: -3.7%
SRPK3 (human); compound 0.02 µM
  inhibition: -0.5%
SRPK3 (human); compound 0.2 µM
  inhibition: 7.9%
SGK1 (human); compound 0.02 µM
  inhibition: -0.6%
SGK1 (human); compound 0.2 µM
  inhibition: 8.5%
TYK2 JH1 JH2 (human); compound 0.02 µM
  inhibition: -2.4%
PRKACA (human); compound 0.02 µM
  inhibition: -4.7%
PRKACA (human); compound 0.2 µM
  inhibition: 0.7%
EPHA4 (human); compound 0.02 µM
  inhibition: -1.7%
EPHA4 (human); compound 0.2 µM
  inhibition: 22%
MAPKAPK2 (human); compound 0.02 µM
  inhibition: -7.2%
MAPKAPK2 (human); compound 0.2 µM
  inhibition: -2%
STK38 (human); compound 0.02 µM
  inhibition: -2.5%
STK38 (human); compound 0.2 µM
  inhibition: 4.8%
PAK2 (human); compound 0.02 µM
  inhibition: -1.7%
PAK2 (human); compound 0.2 µM
  inhibition: 0.7%
CDK3 (human); compound 0.02 µM
  inhibition: -4.1%
CDK3 (human); compound 0.2 µM
  inhibition: -2.4%
NEK9 (human); compound 0.02 µM
  inhibition: -3.7%
NEK9 (human); compound 0.2 µM
  inhibition: -5.9%
NEK1 (human); compound 0.02 µM
  inhibition: -5.2%
NEK1 (human); compound 0.2 µM
  inhibition: -6.3%
SRPK2 (human); compound 0.02 µM
  inhibition: -5.7%
SRPK2 (human); compound 0.2 µM
  inhibition: -6.5%
TYRO3 (human); compound 0.02 µM
  inhibition: -9.4%
TYRO3 (human); compound 0.2 µM
  inhibition: 3.7%
RPS6KB2 (human); compound 0.02 µM
  inhibition: 6.3%
RPS6KB2 (human); compound 0.2 µM
  inhibition: 5.5%
FES (human); compound 0.02 µM
  inhibition: -3.2%
FES (human); compound 0.2 µM
  inhibition: 7.2%
FGFR3 (human); compound 0.02 µM
  inhibition: 5.5%
FGFR3 (human); compound 0.2 µM
  inhibition: 51.7%
TSSK1B (human); compound 0.02 µM
  inhibition: -3.7%
TSSK1B (human); compound 0.2 µM
  inhibition: -2.9%
SLK (human); compound 0.02 µM
  inhibition: 1%
SLK (human); compound 0.2 µM
  inhibition: 10.6%
PRKCA (human); compound 0.02 µM
  inhibition: 1.2%
PRKCA (human); compound 0.2 µM
  inhibition: 12.2%
ROCK2 (human); compound 0.02 µM
  inhibition: -2%
ROCK2 (human); compound 0.2 µM
  inhibition: 2.8%
RPS6KA6 KD1 KD2 (human); compound 0.02 µM
  inhibition: -2%
RPS6KA6 KD1 KD2 (human); compound 0.2 µM
  inhibition: -6.2%
WNK1 (human); compound 0.02 µM
  inhibition: -4.5%
WNK1 (human); compound 0.2 µM
  inhibition: 6.3%
CDK1 (human); compound 0.02 µM
  inhibition: -2%
CDK1 (human); compound 0.2 µM
  inhibition: -2%

## CCN(CC)CCNC(=O)c1c(C)[nH]c(/C=C2\C(=O)Nc3ccc(F)cc32)c1C
NTRK1 (human); compound 0.2 µM
  inhibition: 99.7%
NTRK1 (human); compound 4.0 µM
  inhibition: 101%
FGFR1 (human); compound 0.2 µM
  inhibition: 52.9%
FGFR1 (human); compound 4.0 µM
  inhibition: 96.2%
FGFR4 (human); compound 0.2 µM
  inhibition: 10.3%
FGFR4 (human); compound 4.0 µM
  inhibition: 62.6%
FLT4 (human); compound 0.2 µM
  inhibition: 88.2%
FLT4 (human); compound 4.0 µM
  inhibition: 101%
PTK6 (human); compound 0.2 µM
  inhibition: 17.6%
PTK6 (human); compound 4.0 µM
  inhibition: 82.3%
MERTK (human); compound 0.2 µM
  inhibition: 96%
MERTK (human); compound 4.0 µM
  inhibition: 104%
CSNK2A1 (human); compound 0.2 µM
  inhibition: -0.4%
CSNK2A1 (human); compound 4.0 µM
  inhibition: 19.9%
PLK1 (human); compound 0.2 µM
  inhibition: -3.4%
PLK1 (human); compound 4.0 µM
  inhibition: 5.8%
SRPK3 (human); compound 0.2 µM
  inhibition: 1.1%
SRPK3 (human); compound 4.0 µM
  inhibition: 5.1%
SGK1 (human); compound 0.2 µM
  inhibition: 28.6%
SGK1 (human); compound 4.0 µM
  inhibition: 87.8%
TYK2 JH1 JH2 (human); compound 0.2 µM
  inhibition: 21.6%
TYK2 JH1 JH2 (human); compound 4.0 µM
  inhibition: 78.3%
PRKACA (human); compound 0.2 µM
  inhibition: 0.6%
PRKACA (human); compound 4.0 µM
  inhibition: 49%
EPHA4 (human); compound 0.2 µM
  inhibition: 2.1%
EPHA4 (human); compound 4.0 µM
  inhibition: 40.8%
MAPKAPK2 (human); compound 0.2 µM
  inhibition: 4%
MAPKAPK2 (human); compound 4.0 µM
  inhibition: 5.5%
STK38 (human); compound 0.2 µM
  inhibition: 8.9%
STK38 (human); compound 4.0 µM
  inhibition: 45.1%
PAK2 (human); compound 0.2 µM
  inhibition: 1.8%
PAK2 (human); compound 4.0 µM
  inhibition: 7.7%
CDK3 (human); compound 0.2 µM
  inhibition: 0.3%
CDK3 (human); compound 4.0 µM
  inhibition: 36.6%
NEK9 (human); compound 0.2 µM
  inhibition: 0%
NEK9 (human); compound 4.0 µM
  inhibition: 20.7%
NEK1 (human); compound 0.2 µM
  inhibition: -2.4%
NEK1 (human); compound 4.0 µM
  inhibition: -8.5%
SRPK2 (human); compound 0.2 µM
  inhibition: -0.5%
SRPK2 (human); compound 4.0 µM
  inhibition: 21.1%
TYRO3 (human); compound 0.2 µM
  inhibition: 82.2%
TYRO3 (human); compound 4.0 µM
  inhibition: 100%
RPS6KB2 (human); compound 0.2 µM
  inhibition: 15.7%
RPS6KB2 (human); compound 4.0 µM
  inhibition: 50%
FGFR3 (human); compound 0.2 µM
  inhibition: 75%
FGFR3 (human); compound 4.0 µM
  inhibition: 98.4%
TSSK1B (human); compound 0.2 µM
  inhibition: 63.2%
TSSK1B (human); compound 4.0 µM
  inhibition: 95.5%
SLK (human); compound 0.2 µM
  inhibition: 78.3%
PRKCA (human); compound 0.2 µM
  inhibition: 0.1%
PRKCA (human); compound 4.0 µM
  inhibition: 28.7%
ROCK2 (human); compound 0.2 µM
  inhibition: 20%
ROCK2 (human); compound 4.0 µM
  inhibition: 76.7%
RPS6KA6 KD1 KD2 (human); compound 0.2 µM
  inhibition: 80.7%
RPS6KA6 KD1 KD2 (human); compound 4.0 µM
  inhibition: 97.8%
WNK1 (human); compound 0.2 µM
  inhibition: 3.2%
WNK1 (human); compound 4.0 µM
  inhibition: 4.9%
CDK1 (human); compound 0.2 µM
  inhibition: -3%
CDK1 (human); compound 4.0 µM
  inhibition: 16%
